{"source": "patent US20150094474A1", "about": "“AGRICULTURAL CHEMICALS” (Redx Pharma Ltd., priority 2012, published 2015)", "key": {"[1]": {"system": "barley", "assay": "Herbicidal bioassay, barley (% necrosis)", "type": "in vivo", "method_in_brief": "(§1)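 Lolium perenne, barley, peas and Chinese cabbage at 2-4 true leaf stage sprayed simultaneously with a Potter tower, compounds in DMSO at six concentrations (0.05% to 0.0001%). Phytotoxicity scored as % necrosis per EPPO PP1/135 at set intervals; five replicates per treatment and species; DMSO and water controls.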"}, "[2]": {"system": "peas", "assay": "Herbicidal bioassay, peas (% necrosis)", "type": "in vivo", "method_in_brief": "as §1"}}}
{"smiles": "COc1cc(OC)nc(NC(=O)NS(=O)(=O)c2cc(CNS(C)(=O)=O)ccc2COC(C)=O)n1", "note": "[Compound 61, [2-[(4,6-Dimethoxypyrimidin-2-yl)carbamoylsulfamoyl]-4-(methanesulfonamidomethyl)phenyl]methylacetate]", "values": [{"measurement": "Sum of % necrosis in barley", "setting": "[1]; Dose 0.000001, Day 0", "value": "C (less than 50% necrosis)"}, {"measurement": "Sum of % necrosis in barley", "setting": "[1]; Dose 0.000001, Day 1", "value": "C (less than 50% necrosis)"}, {"measurement": "Sum of % necrosis in barley", "setting": "[1]; Dose 0.000001, Day 3", "value": "C (less than 50% necrosis)"}, {"measurement": "Sum of % necrosis in barley", "setting": "[1]; Dose 0.000001, Day 7", "value": "C (less than 50% necrosis)"}, {"measurement": "Sum of % necrosis in barley", "setting": "[1]; Dose 0.000001, Day 10", "value": "C (less than 50% necrosis)"}, {"measurement": "Sum of % necrosis in barley", "setting": "[1]; Dose 0.000001, Day 14", "value": "C (less than 50% necrosis)"}, {"measurement": "Sum of % necrosis in barley", "setting": "[1]; Dose 0.000005, Day 0", "value": "C (less than 50% necrosis)"}, {"measurement": "Sum of % necrosis in barley", "setting": "[1]; Dose 0.000005, Day 1", "value": "C (less than 50% necrosis)"}, {"measurement": "Sum of % necrosis in barley", "setting": "[1]; Dose 0.000005, Day 3", "value": "C (less than 50% necrosis)"}, {"measurement": "Sum of % necrosis in barley", "setting": "[1]; Dose 0.000005, Day 7", "value": "C (less than 50% necrosis)"}, {"measurement": "Sum of % necrosis in barley", "setting": "[1]; Dose 0.000005, Day 10", "value": "C (less than 50% necrosis)"}, {"measurement": "Sum of % necrosis in barley", "setting": "[1]; Dose 0.000005, Day 14", "value": "C (less than 50% necrosis)"}, {"measurement": "Sum of % necrosis in barley", "setting": "[1]; Dose 0.00001, Day 0", "value": "C (less than 50% necrosis)"}, {"measurement": "Sum of % necrosis in barley", "setting": "[1]; Dose 0.00001, Day 1", "value": "C (less than 50% necrosis)"}, {"measurement": "Sum of % necrosis in barley", "setting": "[1]; Dose 0.00001, Day 3", "value": "C (less than 50% necrosis)"}, {"measurement": "Sum of % necrosis in barley", "setting": "[1]; Dose 0.00001, Day 7", "value": "C (less than 50% necrosis)"}, {"measurement": "Sum of % necrosis in barley", "setting": "[1]; Dose 0.00001, Day 10", "value": "C (less than 50% necrosis)"}, {"measurement": "Sum of % necrosis in barley", "setting": "[1]; Dose 0.00001, Day 14", "value": "C (less than 50% necrosis)"}, {"measurement": "Sum of % necrosis in barley", "setting": "[1]; Dose 0.00005, Day 0", "value": "C (less than 50% necrosis)"}, {"measurement": "Sum of % necrosis in barley", "setting": "[1]; Dose 0.00005, Day 1", "value": "C (less than 50% necrosis)"}, {"measurement": "Sum of % necrosis in barley", "setting": "[1]; Dose 0.00005, Day 3", "value": "C (less than 50% necrosis)"}, {"measurement": "Sum of % necrosis in barley", "setting": "[1]; Dose 0.00005, Day 7", "value": "C (less than 50% necrosis)"}, {"measurement": "Sum of % necrosis in barley", "setting": "[1]; Dose 0.00005, Day 10", "value": "C (less than 50% necrosis)"}, {"measurement": "Sum of % necrosis in barley", "setting": "[1]; Dose 0.00005, Day 14", "value": "C (less than 50% necrosis)"}, {"measurement": "Sum of % necrosis in barley", "setting": "[1]; Dose 0.0001, Day 0", "value": "C (less than 50% necrosis)"}, {"measurement": "Sum of % necrosis in barley", "setting": "[1]; Dose 0.0001, Day 1", "value": "C (less than 50% necrosis)"}, {"measurement": "Sum of % necrosis in barley", "setting": "[1]; Dose 0.0001, Day 3", "value": "C (less than 50% necrosis)"}, {"measurement": "Sum of % necrosis in barley", "setting": "[1]; Dose 0.0001, Day 7", "value": "C (less than 50% necrosis)"}, {"measurement": "Sum of % necrosis in barley", "setting": "[1]; Dose 0.0001, Day 10", "value": "C (less than 50% necrosis)"}, {"measurement": "Sum of % necrosis in barley", "setting": "[1]; Dose 0.0001, Day 14", "value": "C (less than 50% necrosis)"}, {"measurement": "Sum of % necrosis in barley", "setting": "[1]; Dose 0.0005, Day 0", "value": "C (less than 50% necrosis)"}, {"measurement": "Sum of % necrosis in barley", "setting": "[1]; Dose 0.0005, Day 1", "value": "C (less than 50% necrosis)"}, {"measurement": "Sum of % necrosis in barley", "setting": "[1]; Dose 0.0005, Day 3", "value": "C (less than 50% necrosis)"}, {"measurement": "Sum of % necrosis in barley", "setting": "[1]; Dose 0.0005, Day 7", "value": "C (less than 50% necrosis)"}, {"measurement": "Sum of % necrosis in barley", "setting": "[1]; Dose 0.0005, Day 10", "value": "C (less than 50% necrosis)"}, {"measurement": "Sum of % necrosis in barley", "setting": "[1]; Dose 0.0005, Day 14", "value": "C (less than 50% necrosis)"}, {"measurement": "Sum of % necrosis in Pea", "setting": "[2]; Dose 0.000001, Day 0", "value": "C (less than 50% necrosis)"}, {"measurement": "Sum of % necrosis in Pea", "setting": "[2]; Dose 0.000001, Day 1", "value": "C (less than 50% necrosis)"}, {"measurement": "Sum of % necrosis in Pea", "setting": "[2]; Dose 0.000001, Day 3", "value": "C (less than 50% necrosis)"}, {"measurement": "Sum of % necrosis in Pea", "setting": "[2]; Dose 0.000001, Day 7", "value": "C (less than 50% necrosis)"}, {"measurement": "Sum of % necrosis in Pea", "setting": "[2]; Dose 0.000001, Day 10", "value": "C (less than 50% necrosis)"}, {"measurement": "Sum of % necrosis in Pea", "setting": "[2]; Dose 0.000001, Day 14", "value": "C (less than 50% necrosis)"}, {"measurement": "Sum of % necrosis in Pea", "setting": "[2]; Dose 0.000005, Day 0", "value": "C (less than 50% necrosis)"}, {"measurement": "Sum of % necrosis in Pea", "setting": "[2]; Dose 0.000005, Day 1", "value": "C (less than 50% necrosis)"}, {"measurement": "Sum of % necrosis in Pea", "setting": "[2]; Dose 0.000005, Day 3", "value": "C (less than 50% necrosis)"}, {"measurement": "Sum of % necrosis in Pea", "setting": "[2]; Dose 0.000005, Day 7", "value": "C (less than 50% necrosis)"}, {"measurement": "Sum of % necrosis in Pea", "setting": "[2]; Dose 0.000005, Day 10", "value": "C (less than 50% necrosis)"}, {"measurement": "Sum of % necrosis in Pea", "setting": "[2]; Dose 0.000005, Day 14", "value": "C (less than 50% necrosis)"}, {"measurement": "Sum of % necrosis in Pea", "setting": "[2]; Dose 0.00001, Day 0", "value": "C (less than 50% necrosis)"}, {"measurement": "Sum of % necrosis in Pea", "setting": "[2]; Dose 0.00001, Day 1", "value": "C (less than 50% necrosis)"}, {"measurement": "Sum of % necrosis in Pea", "setting": "[2]; Dose 0.00001, Day 3", "value": "C (less than 50% necrosis)"}, {"measurement": "Sum of % necrosis in Pea", "setting": "[2]; Dose 0.00001, Day 7", "value": "C (less than 50% necrosis)"}, {"measurement": "Sum of % necrosis in Pea", "setting": "[2]; Dose 0.00001, Day 10", "value": "C (less than 50% necrosis)"}, {"measurement": "Sum of % necrosis in Pea", "setting": "[2]; Dose 0.00001, Day 14", "value": "B (50%-80% necrosis)"}, {"measurement": "Sum of % necrosis in Pea", "setting": "[2]; Dose 0.00005, Day 0", "value": "C (less than 50% necrosis)"}, {"measurement": "Sum of % necrosis in Pea", "setting": "[2]; Dose 0.00005, Day 1", "value": "C (less than 50% necrosis)"}, {"measurement": "Sum of % necrosis in Pea", "setting": "[2]; Dose 0.00005, Day 3", "value": "C (less than 50% necrosis)"}, {"measurement": "Sum of % necrosis in Pea", "setting": "[2]; Dose 0.00005, Day 7", "value": "C (less than 50% necrosis)"}, {"measurement": "Sum of % necrosis in Pea", "setting": "[2]; Dose 0.00005, Day 10", "value": "B (50%-80% necrosis)"}, {"measurement": "Sum of % necrosis in Pea", "setting": "[2]; Dose 0.00005, Day 14", "value": "B (50%-80% necrosis)"}, {"measurement": "Sum of % necrosis in Pea", "setting": "[2]; Dose 0.0001, Day 0", "value": "C (less than 50% necrosis)"}, {"measurement": "Sum of % necrosis in Pea", "setting": "[2]; Dose 0.0001, Day 1", "value": "C (less than 50% necrosis)"}, {"measurement": "Sum of % necrosis in Pea", "setting": "[2]; Dose 0.0001, Day 3", "value": "C (less than 50% necrosis)"}, {"measurement": "Sum of % necrosis in Pea", "setting": "[2]; Dose 0.0001, Day 7", "value": "C (less than 50% necrosis)"}, {"measurement": "Sum of % necrosis in Pea", "setting": "[2]; Dose 0.0001, Day 10", "value": "C (less than 50% necrosis)"}, {"measurement": "Sum of % necrosis in Pea", "setting": "[2]; Dose 0.0001, Day 14", "value": "C (less than 50% necrosis)"}, {"measurement": "Sum of % necrosis in Pea", "setting": "[2]; Dose 0.0005, Day 0", "value": "C (less than 50% necrosis)"}, {"measurement": "Sum of % necrosis in Pea", "setting": "[2]; Dose 0.0005, Day 1", "value": "C (less than 50% necrosis)"}, {"measurement": "Sum of % necrosis in Pea", "setting": "[2]; Dose 0.0005, Day 3", "value": "C (less than 50% necrosis)"}, {"measurement": "Sum of % necrosis in Pea", "setting": "[2]; Dose 0.0005, Day 7", "value": "B (50%-80% necrosis)"}, {"measurement": "Sum of % necrosis in Pea", "setting": "[2]; Dose 0.0005, Day 10", "value": "B (50%-80% necrosis)"}, {"measurement": "Sum of % necrosis in Pea", "setting": "[2]; Dose 0.0005, Day 14", "value": "A (over 80% necrosis)"}]}
